For the assay, the target named is T1, HCV NS3 helicase NS3h_1b(con1) (Hepatitis C virus genotype 1b, UniProt Q9WMX2).
T1 construct: truncated C-terminally His-tagged NS3 proteins lacking the N-terminal protease, called NS3h; His-tag (C); made in house
The assay can be described thus: MBHA screen of NCI mechanistic set library at 20 μM (percent inhibition, compound interference). The assay is classed as biochemical. Particulars: compounds at 20 μM; for Inh. (%) (Inhibition): calculated from Equation 1. The gist of the method: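 Molecular beacon-based DNA unwinding assay; compounds screened at 20 μM in triplicate, with DMSO-only negative and 500 nM dT20 positive controls. Fluorescence (ex 643/em 670 nm) was read before and 30 min after adding ATP to 1 mM. Percent inhibition came from the change relative to DMSO controls; interference from pre-ATP fluorescence versus DMSO controls.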

[1] abbreviates: MBHA with DNA substrate, assay interference calculated with Equation 2.
Setting [2] is: assay interference calculated with Equation 2 (fluorescence vs DMSO-only controls before ATP).

Non-standard residues stand in square brackets, D forms with d. Residues, ends and D or L forms follow the SMILES beside them. ξ: configuration not given here. *: point of attachment. ξNMe2Val = CC(C)C(C(=O)*)N(C)C; NMeV = CN[CH](C(=O)O)C(C)C; NHBn = c1ccc(CN*)cc1

T1 sequence (Q9WMX2 1192-1657): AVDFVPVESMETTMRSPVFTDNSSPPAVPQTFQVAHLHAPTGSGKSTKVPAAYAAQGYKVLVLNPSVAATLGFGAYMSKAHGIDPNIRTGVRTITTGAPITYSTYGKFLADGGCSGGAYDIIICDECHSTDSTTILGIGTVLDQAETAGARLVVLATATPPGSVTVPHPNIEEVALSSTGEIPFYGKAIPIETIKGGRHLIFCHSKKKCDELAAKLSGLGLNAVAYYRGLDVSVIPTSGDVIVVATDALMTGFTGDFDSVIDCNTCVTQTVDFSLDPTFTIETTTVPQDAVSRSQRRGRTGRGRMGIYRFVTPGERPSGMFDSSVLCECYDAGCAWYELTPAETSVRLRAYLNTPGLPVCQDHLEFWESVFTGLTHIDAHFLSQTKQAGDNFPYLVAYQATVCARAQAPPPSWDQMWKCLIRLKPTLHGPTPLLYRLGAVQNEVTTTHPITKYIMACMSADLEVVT

As to `Cl.O=C1C=CC(=O)c2c(O)c(N3CCN(CCOCCO)CC3)c(Br)c(O)c21` [Compound 659999], the “Int.* (Ratio) (Interference)” value under setting [1] is 0.44 Ratio. For the same molecule, under “MBHA with DNA substrate”, the “Inh. (%) (Inhibition)” value is listed as 6.1%.
Turning to `Cc1nn(-c2ccccc2)c2c1CC(=O)Nc1ccccc1-2` [Compound 662553], the “Inh. (%) (Inhibition)” value (MBHA with a DNA substrate) is on record as −4.6%. Further, under setting [2], the “Int.* (Ratio) (Interference)” value was 1.02 Ratio.
As for `C=C(Cl)C(Cl)(CBr)CCC(Br)C(C)(C)Cl` (stereo not shown) [Compound 662825], the “Int.* (Ratio) (Interference)” value under setting [1] was 0.93 Ratio. For the same molecule, the “Inh. (%) (Inhibition)” value (MBHA with DNA substrate) is reported as 14.5%.
For `COc1ccc(NC2=NCCO2)c2c1CCCC2` [Compound 663996] the same measures were 1.08 Ratio and −2.7%.
With `O=C1C(C(O)(C(F)(F)F)C(F)(F)F)CCC1C(O)(C(F)(F)F)C(F)(F)F` (stereo not shown) [Compound 664181], under setting [1], the “Int.* (Ratio) (Interference)” value is listed as 0.84 Ratio. For the same molecule, for the setting “MBHA with DNA substrate”, the “Inh. (%) (Inhibition)” value is 14.5%.
In the case of `CN(NC1=NCCO1)c1ccc2ccccc2c1` [Compound 664286], the “Inh. (%) (Inhibition)” value (MBHA with a DNA substrate) was −22.3%. For the same molecule, the “Int.* (Ratio) (Interference)” value under setting [2] is 1.18 Ratio.
For the molecule `CC(Cc1ccccc1)NC1=NCCO1` (stereo not shown) [Compound 664298], the “Inh. (%) (Inhibition)” value (MBHA with a DNA substrate) is 9.8%. In addition, the “Int.* (Ratio) (Interference)” value under setting [2] is listed as 0.96 Ratio.
For `CC(=O)C(N1CCCCC1)C(O)(C(F)(F)F)C(F)(F)F` (stereo not shown) [Compound 664327], the “Int.* (Ratio) (Interference)” value under setting [1] is recorded as 0.82 Ratio. Moreover, the “Inh. (%) (Inhibition)” value (MBHA with DNA substrate) is listed as 25.5%.
For the molecule `O/N=C(\CC(O)(C(F)(F)F)C(F)(F)F)c1cccc(Cl)c1` [Compound 664329], the “Int.* (Ratio) (Interference)” value under setting [1] is recorded as 1.01 Ratio. The “Inh. (%) (Inhibition)” value (MBHA with DNA substrate) is given as −14.5%.
As for `CC1=CC(=O)c2cccc(NC3=NCCO3)c21` [Compound 664331], the “Int.* (Ratio) (Interference)” value under setting [1] is reported as 1.03 Ratio. Further, the “Inh. (%) (Inhibition)” value (MBHA with DNA substrate) was −1.8%.
Taken in the same sequence, the figures for `O=C1Cc2c([nH]c3ccc(Br)cc23)-c2ccccc2N1` [Compound 664704] were 0.98 Ratio and −10.6%.
`CCCCCCC1CC(=O)C1(Cl)Cl` (stereo not shown) [Compound 666526]: the “Int.* (Ratio) (Interference)” value under setting [1] is recorded as 0.97 Ratio. Moreover, where the note is “MBHA with DNA substrate”, the “Inh. (%) (Inhibition)” value is −1.3%.
In the case of `CCOC(=O)Cc1cc(=O)oc2cc(O)ccc12` [Compound 667235], the “Int.* (Ratio) (Interference)” value under setting [1] is 1.06 Ratio. In addition, the “Inh. (%) (Inhibition)” value (MBHA with DNA substrate) was 12.3%.
`CN(C)c1cccc(/C=C(\C#N)c2ccccc2)c1` [Compound 667251]: the “Inh. (%) (Inhibition)” value (MBHA with a DNA substrate) is −7.0%. Also, the “Int.* (Ratio) (Interference)” value under setting [2] is reported as 1.09 Ratio.
As for `S=C1Nc2cnc3ccccc3c2SC1c1ccccc1` (stereo not shown) [Compound 667467], under setting [1], the “Int.* (Ratio) (Interference)” value is recorded as 0.89 Ratio. Also, the “Inh. (%) (Inhibition)” value (MBHA with DNA substrate) is on record as 33.3%.
In the case of `C=C1CC(Cn2cc(Br)c(=O)[nH]c2=O)(c2ccc(-c3ccccc3)cc2)OC1=O` (stereo not shown) [Compound 668260], the “Int.* (Ratio) (Interference)” value under setting [1] is given as 0.94 Ratio. The “Inh. (%) (Inhibition)” value (MBHA with DNA substrate) is on record as 0.4%.
Taken in the same sequence, the figures for `C=C1CC(COc2cc(=O)oc3ccccc23)(c2ccccc2)OC1=O` (stereo not shown) [Compound 668270] were 0.83 Ratio and 28.1%.
Taken in the same sequence, the figures for `CC(C)C(NC(=O)C(C(C)C)N(C)C)C(=O)N(C)C(C(=O)N1CCCC1C(=O)N1CCCC1C(=O)NCc1ccccc1)C(C)C.Cl` (stereo not shown) [Compound 669356] (ξNMe2Val-V[NMeV]PP-NHBn; configuration not given here) were 1.08 Ratio and −9.2%.
For `O=C(ON=C1c2ccccc2C(Br)C(Br)c2ccccc21)c1ccccc1` (stereo not shown) [Compound 670140] the same measures were 0.95 Ratio and 15.2%.
As to `CN(C)CCOC1(Cc2ccc(Cl)cc2Cl)CCC(C(C)(C)C)CC1.Cl` (stereo not shown) [Compound 670224], the “Int.* (Ratio) (Interference)” value under setting [1] is 0.88 Ratio. Also, the “Inh. (%) (Inhibition)” value (MBHA with DNA substrate) is reported as 17.9%.

(Values after US9464064B2, “HCV helicase inhibitors and methods of use thereof” (University of Kansas, priority 2011, dated 2016).)
